One series concerns H-460 cells. The series is described as follows: FACS analysis of liposome binding by doxorubicin fluorescence. Format: cell-based. As to conditions: 0.01 to 10 μg/ml doxorubicin, FIG. 8. As to the method: H-460 cells were grown in cell culture plate under sterile conditions and harvested by scraping. The liposome samples (empty Thermodox liposome, ThermoDox, D4-ThermoDox, D4*-ThermoDox where D4 ThermoDox comprises SEQ ID NO:1 and D4*ThermoDox comprises SEQ ID NO:2) and doxorubicin hydrochloride were added and incubated at 37° C. with H-460 cells for 4 hours. Two different liposomes comprising different amounts of the peptide of the invention (D4-ThermoDox) were tested. The two liposomes were designated D4-ThermoDox2+2, which comprised DPPC:MSPC: DSPE-MPEG2000:D4-DSPE-MPEG2000 in a 90:10:2:2 molar ratio and D4-ThermoDox4+4, which comprised DPPC:MSPC: DSPE-MPEG2000:D4-DSPE-MPEG2000 in a 90:10:4:4 molar ratio. The D4*-ThermoDox comprised DPPC:MSPC: DSPE-MPEG2000:D4*-DSPE-MPEG2000 in a 90:10:2:2 molar ratio. After incubation, the cells were washed 4 times with PBS, and counted by FACS using doxorubicin fluorescence (excitation at 488 nm, and emission at 575 nm).
The following groups were examined: a. Non-treatment control; b. ThermoDox at approx. 0.01-10 μg (doxorubicin)/mL; c. D4-ThermoDox2+2 at approx. 0.01-10 μg (doxorubicin)/mL; d. D4-ThermoDox4+4 at approx. 0.01-10 μg (doxorubicin)/mL; e. D4*-ThermoDox at approx. 0.01-10 μg (doxorubicin)/mL; and f. doxorubicin hydrochloride 0.01-10 μg. […]
On the technique in general: In flow cytometry, cells or beads pass a laser one at a time.

In the next series the test system is H1299 cells. The experiment in a line: MTT cell killing assay, H1299. Format: cell-based. To be noted: Homo sapiens, NCI-H1299, H1299, 2 hours exposure, then 48 hours growth, read-out: calculated IC50. On the procedure: (§1) H1299 and SPCA1 cells were plated at the density of 10^4 cells/well in 96-well plates and grown overnight. […] The cells were then washed with fresh medium, and let grown for another 48 hours. The cell viabilities after different treatments were determined using a MTT assay (26).

The test system of another series is SPCA1 cells. The experiment in a line: MTT cell killing assay, SPCA1. As to conditions: Homo sapiens, SPCA1, 2 hours exposure, then 48 hours growth, read-out: calculated IC50. Format: cell-based. On the procedure:
as §1

For the next series, the system named is H1299 tumor bearing mice. The experiment in a line: In vivo fluorescence imaging of Cy5.5 labeled peptides. As to conditions: tail vein injection, 1 to 6 hours after injection. On the procedure:
Both H1299 and SPCA1 xenograft mouse models were prepared by the animal experimental center of Shanghai Cancer Institute. They were used in the in vivo imaging experiments about 3˜4 weeks after tumor cell inoculation (tumor size about 5-7 mm diameter), and humanely sacrificed afterwards. The animal study protocols were approved by the Animal Study Committee of Shanghai Jiaotong University, School of Pharmacy.
At various time points afterwards, the mice were anesthetized and imaged with an Optix in vivo fluorescence imaging system (GE Healthcare). Excepted for the Cy5.5 dye only control, all the other groups contained at least 3 mice. The representative images from the same most representative mouse in each group were shown. The images had been processed using the fluorescence lifetime gating for Cy5.5 (0.8-1.1 ns) to remove most autofluorescent interferences.
Cy5.5 fluorescence distributions inside the mice were imaged at various time points after injection. In all groups including the free dye control, fluorescences were first seen all over the body, and then quickly afterwards in the kidney and bladder. […] But in LARLLT-Cy5.5 injected mice, between 1 to 6 hours after injection, fluorescence signals in the tumor tissue were much stronger, as compared to the surrounding tissues.

The target in series [1] is epidermal growth factor receptor (EGFR) on EGFR high-expressing human lung cancer cells (H1299, SPCA1) (human, UniProt P00533 25-1210). The series is described as follows: cell-based or functional assay.

≈ marks a conversion by molar mass, not a printed value.

In the case of `COc1cccc2c1C(=O)c1c(O)c3c(c(O)c1C2=O)C[C@@](O)(C(=O)CO)C[C@@H]3O[C@H]1C[C@H](N)[C@H](O)[C@H](C)O1` [free doxorubicin, doxorubicin], the “doxorubicin uptake (mean fluorescence intensity)” value in the series on H-460 cells was “highest”. Also, the 50% inhibitory concentration (IC50) – broadly, the midpoint of a concentration-inhibition curve – is 5.7 µg/mL (≈ 10.5 µM) in the series with H1299 cells and 2 µg/mL (≈ 3.68 µM) in the series on SPCA1 cells.
Cy5.5: the “fluorescence signal in the tumor region” value in the series on H1299 tumor bearing mice is “the same as background”.

B1: control peptide modified liposomes (scrambled peptide RTALLL conjugated to DSPE-PEG2000, inserted into preformed liposomes) (peptide)
peptide: RTALLL
modifications: peptide thiolated with SPDP, reduced with TCEP and coupled to the maleimide of DSPE-PEG2000-Mal; the lipid conjugate is inserted into liposomes
Take B1: in series [1], the “IC50 of cell killing (MTT), doxorubicin liposomes, H1299 cells” value is 85 µg/mL and the “IC50 of cell killing (MTT), doxorubicin liposomes, SPCA1 cells” value amounted to 15 µg/mL.

The record behind these values is patent US20110200527A1, “Peptide Ligand Directed Drug Delivery” (Shanghai Jiaotong University, priority 2007, published 2011).
